From patent US8663711B2, “Use of armillaridin for treating cancer” (Mackay Memorial Hospital, priority 2012, dated 2014)
Where two headings read alike, the source gives them in different places.

Legend:
CE81T/VGH cells [1] = assay: Cell cycle analysis by flow cytometry (propidium iodine); type: cell-based, human
Description: FIG. 1 illustrates the effects of CH-205-O (i.e., armillaridin) on cell cycle distribution in CE81T/VGH cells in accordance with one embodiment of this invention, in which upper panels represented results obtained from CE81T/VGH cells treated with 0 (panel A), 10 μM (panel B) or 20 μM (panel C) of CH-205-O for 48 hours, and lower panels represented results obtained from CE81T/VGH cells treated with 0 (panel D), 10 μM (panel E) or 20 μM (panel F) of CH-205-O for 72 hours;
Cultured cells with or without pre-treatment of the compound of this invention (i.e., armillaridin at 10 or 20 μM for 48 or 72 hours) were harvested from the cultured media and fixed by incubating with 75% iced cold ethanol at 4° C. for at least over night. The fixed cells were then warmed up to room temperature and treated with RNAase A for about 30 min. Precipitated cells were collected by centrifugation and re-suspended in a buffer solution containing propidium iodine (20 μg/ml) before being subject to flow cytometry analysis, where cell numbers at respective cell cycles were determined.

[2] = system: TE-2 human esophageal squamous carcinoma cell line; assay: Trypan blue exclusion test, cell viability; type: cell-based; conditions: TE-2, 72 hours, read-out: IC50 (concentration required to reduce viability by 50%)
Description: (§1) Cell lines used in the present disclosure include human esophageal squamous carcinoma cell lines CE81T/VGH and TE-2, and human esophageal adenocarcinoma cell lines BE-3 and SKGT-4. Each cell lines were cultured and maintained in Dulbecco's modified Eagle media (DMEM) supplemented with 10% fetal calf serum, 100 IU/ml penicillin, 100 μg/ml streptomycin, and 2 mM glutamine in 5% CO2 at 37° C.
(§2) The dye exclusion test is used to determine the number of viable cells present in a cell suspension. […] In this test, the cells were first treated with a test compound (i.e., CH-205-O) for a certain period of time (e.g., 72 hours), then the cells were harvested and re-suspended in suitable buffer solution. The cell suspension was then mixed with trypan blue dye and then visually examined to determine whether cells had taken up or excluded the dye. A viable cell will have a clear cytoplasm, whereas a nonviable cell will have a blue cytoplasm. The concentration required to reduce viability by 50% (IC50) after 72 hours was extrapolated from the dose-response curves by different concentrations of the test compound using a second-order polynomial regression model and analyzing with SigmaPlot Software (Systat Software Inc., San Jose, Calif.).
(§3) The human esophageal cancer cell lines including squamous cell carcinoma cell lines CE81T/VGH and TE-2, and adenocarcinoma cell lines BE-3 and SKGT-4 were cultured and maintained by procedures described above in the “Materials and Methods” Section. Anti-proliferative activity of armillaridin (hereafter “CH-205-O”) on each cell lines was assessed by cell viability and cell cycle analysis.

[3] = system: SKGT-4 human esophageal adenocarcinoma cell line; assay: Trypan blue exclusion test, cell viability; type: cell-based; conditions: SKGT-4, 72 hours, read-out: IC50 (concentration required to reduce viability by 50%)
Description: as §1, §2, §3

[4] = system: BE-3 human esophageal adenocarcinoma cell line; assay: Trypan blue exclusion test, cell viability; type: cell-based; conditions: BE-3, 72 hours, read-out: IC50 (concentration required to reduce viability by 50%)
Description: as §1, §2, §3

[5] = system: CE81T/VGH human esophageal squamous carcinoma cell line; assay: Trypan blue exclusion test, cell viability; type: cell-based; conditions: read-out: IC50 (concentration required to reduce viability by 50%)
Description: as §1, §2, §3

[6] = system: CE81T/VGH cells xenografted esophageal tumor; assay: Xenograft esophageal cancer mice model; type: in vivo, Balb/c nude mice
Description: For primary esophageal cancer model, total of 9 Balb/c nude mice at the age of 6 weeks were randomly divided into 3 groups, with 3 mice in each group. To start the experiment, each mice were injected with 5×10^5 CE81T/VGH cells subcutaneously to generate esophageal cancer on day 0, and then returned to culture for another 21 days to allow tumor progression. To evaluate the efficacy of the test compound, mice in the test group were given 3 doses of the test compound (CH-205-O at 80 mg/Kg/dose; or cisplatin at 2.5 mg/Kg/dose) every week, and total of […] were given during a period of 20 days after treatment started on day 22. Tumor sizes were measured using calipers. The body weight and the white blood cell counts of each mice were respectively recorded every day throughout the experiment. Tumor volume was calculated using the formula: volume=width^2×length×0.52.
Effects of CH-205-O of this disclosure on mice grafted with CE81T/VGH cells were investigated by measuring the grafted tumor volume; body weight and the number of white blood cells of the mice in accordance with steps described in “Materials and Methods” section. Results are illustrated in FIG. 3.

CE81T/VGH cells [7] = assay: Radiation treatment and clonogenic assay; type: cell-based, human; conditions: pre-treatment 2.5 or 5 μM for 24 hours, then 0-4 Gy radiation, colonies counted after 14 days
Description: Approximately 100 variable tumor cells were respectively plated onto 35-mm six-well culture dishes and were allowed to grow in DMEM medium contained 10% FCS mixed with 0, 1.25, 2.5 or 5 μM of the test compound of this disclosure (i.e., CH-205-O), and the test compound-treated cells were continued culture for 24 hours. The test compound was then washed out, and cells were subject to radiation treatment. Specifically, 6 MeV electron beam energy was delivered by a linear accelerator (Clinac 1800, Varian Associates, Inc., Palo Alto, Calif., USA) with a rate of 2.4 Gy/min at various dose including 0, 0.5, 1, 2, 3 and 4 Gy in a single fraction. Full electron equilibrium was ensured for each fraction by a parallel plate PR-60C ionization chamber (CAPINTEL, Inc., Ramsey, N.Y., USA).
After radiation treatment, cells were returned to the culture for another 14 days; then were stained with 3% crystal violet and the numbers of colony (≧50 cells) were counted.
To this purpose, cancerous cells were pre-treated with 1.25, 2.5 or 5 μM CH-205-O, before being treated with various doses of radiation in accordance with procedures described in “Materials and Methods” section. […]

[8] = long-term exposure, 80 mg/Kg/dose, 12 doses

Structure (SMILES): COc1cc(O)c(C(=O)O[C@@H]2C[C@]3(C)C4CC(C)(C)CC4C=C(C=O)[C@]23O)c(C)c1Cl (stereo partly drawn) [CH-205-O, (2R,2aS,7bR)-3-formyl-2,2a,4a,5,6,7,7a,7b-octahydro-2a-hydroxy-6,6,7b-trimethyl-1H-cyclobuta[e]inden-2-yl 3-chloro-6-hydroxy-4-methoxy-2-methylbenzoate]
- Cell cycle arrest at G2/M phase (CE81T/VGH cells [1]; 10 or 20 μM for 48 hours, CE81T/VGH cells): capable of arresting the CE81T/VGH cells at G2/M phase in a dose-dependent manner
- sub-G1 population of cells (CE81T/VGH cells [1]; 10 or 20 μM, treatment for 72 hours, CE81T/VGH cells): induce an increase in the sub-G1 population of cells
- Esophageal cancerous cells arrested at G2/M cycle (CE81T/VGH cells [1]; one specific example): at least 50%
- IC50 ([2]; Homo sapiens, 72 h): ~3 µM
- IC50 [2]: 3.4 µM
- IC50 ([3]; Homo sapiens, SKGT4, 72 h): ~5 µM
- IC50 [3]: 5.5 µM
- IC50 [4]: 5.4 µM
- IC50 ([4]; Homo sapiens, 72 h): ~5 µM
- IC50 ([5]; 72 hours): 6.9 µM
- IC50 ([5]; Homo sapiens, CE81T, 72 h): ~7 µM
- Volume of the xenografted esophageal tumor ([6]; 80 mg/Kg/dose, at least 12 doses, compared with control mice (vehicle only)): effective in reducing the volume of the xenografted esophageal tumor significantly
- Body weight of the mice [6, 8]: does not affect
- Number of white blood cells of the mice [6, 8]: does not affect
- Reduction of the size of the cancer as compared with control ([6]; long-term exposure, at least 12 doses within 20 days, 3 doses per week): at least 50%
- Susceptibility of CE81T/VGH cells to radiation treatment (colony formation) (CE81T/VGH cells [7]): capable of enhancing the susceptibility of CE81T/VGH cells to radiation treatment
